Tests used:
[1] = Single oral (PO) dose pharmacokinetics study in rats; plasma concentration of MDMA (and prodrug) by LC-MS/MS; details: for AUC(0-t): po, mean
[2] = Single intravenous (IV) dose pharmacokinetics study in rats; plasma concentration of MDMA by LC-MS/MS
[3] = male, Sprague-Dawley, rat, plasma, iv, 1 mg/kg
[4] = 0.50 h after oral dosing of prodrug 10 mg/Kg, male SD rats
[5] = 1.00 h after oral dosing of prodrug 10 mg/Kg, male SD rats
[6] = 2.00 h after oral dosing of prodrug 10 mg/Kg, male SD rats
[7] = 4.00 h after oral dosing of prodrug 10 mg/Kg, male SD rats
[8] = 7.00 h after oral dosing of prodrug 10 mg/Kg, male SD rats
[9] = 24.0 h after oral dosing of prodrug 10 mg/Kg, male SD rats

Row | Structure (SMILES) | Tlast ([1]; MDMA dosed PO 10 mg/Kg, male SD rats, analyte MDMA, median) [h] | bioavailability ([1]; male, Sprague-Dawley, rat, plasma, oral, 10 mg/kg) [%] | AUC(0-t) ([1]; male, Sprague-Dawley, rat, plasma, 10 mg/kg, AUC0-2, MDMA dosed PO 10 mg/Kg, male SD rats, analyte MDMA) [ng·h/mL] | AUC(0-t) ([1]; male, Sprague-Dawley, rat, plasma, 10 mg/kg, AUC0-24, MDMA dosed PO 10 mg/Kg, male SD rats, analyte MDMA) [ng·h/mL] | AUC(0-t) ([1]; male, Sprague-Dawley, rat, plasma, 10 mg/kg, AUC0-last, MDMA dosed PO 10 mg/Kg, male SD rats, analyte MDMA) [ng·h/mL] | Tlast ([2]; MDMA dosed IV 1 mg/Kg, male SD rats, analyte MDMA, median) [h] | Vd [2, 3] [L/kg] | clearance [2, 3] [mL/min/kg] | Mean plasma concentration of metabolite MDMA [1, 4] | Mean plasma concentration of metabolite MDMA [1, 5] | Mean plasma concentration of metabolite MDMA [1, 6] | Mean plasma concentration of metabolite MDMA [1, 7] | Mean plasma concentration of metabolite MDMA [1, 8] | Mean plasma concentration of metabolite MDMA [1, 9]
1 | CNC(C)Cc1ccc2c(c1)OCO2 (centres unmarked) [MDMA, 3,4-Methylenedioxymethamphetamine] | 7.00 | 104 | 638 | 1810 | 1710 | 2.00 | 8.18 | 274 |  |  |  |  |  | 
2 | CC(Cc1ccc2c(c1)OCO2)N(C)C(=O)C1CCOC1 (centres unmarked) [N-[2-(2H-1,3-Benzodioxol-5-yl)-1-methyl-ethyl]-N-methyl-tetrahydro-3-furamide] |  |  |  |  |  |  |  |  | BLQ (BLQ: Below Lower Limit of Quantification (0.5 ng/mL)) | BLQ (BLQ: Below Lower Limit of Quantification (0.5 ng/mL)) | BLQ (BLQ: Below Lower Limit of Quantification (0.5 ng/mL)) | BLQ (BLQ: Below Lower Limit of Quantification (0.5 ng/mL)) | BLQ (BLQ: Below Lower Limit of Quantification (0.5 ng/mL)) | BLQ (BLQ: Below Lower Limit of Quantification (0.5 ng/mL))
3 | CC(Cc1ccc2c(c1)OCO2)N(C)C(=O)C1(C)CCOCC1 (centres unmarked) [N-[2-(2H-1,3-Benzodioxol-5-yl)-1-methylethyl]-N-methyl-4-methyltetrahydro-2H-pyran-4-carboxamide] |  |  |  |  |  |  |  |  | BLQ (BLQ: Below Lower Limit of Quantification (0.5 ng/mL)) | BLQ (BLQ: Below Lower Limit of Quantification (0.5 ng/mL)) | BLQ (BLQ: Below Lower Limit of Quantification (0.5 ng/mL)) | BLQ (BLQ: Below Lower Limit of Quantification (0.5 ng/mL)) | BLQ (BLQ: Below Lower Limit of Quantification (0.5 ng/mL)) | BLQ (BLQ: Below Lower Limit of Quantification (0.5 ng/mL))
4 | CC(Cc1ccc2c(c1)OCO2)N(C)C(=O)OC1COC1 (centres unmarked) [Oxetane-3-yl carbamate prodrug of MDMA, Oxetan-3-yl N-[2-(1,3-benzodioxol-5-yl)-1-methyl-ethyl]-N-methyl-carbamate] |  |  |  |  |  |  |  |  | BLQ (BLQ: Below Lower Limit of Quantification (0.5 ng/mL)) | BLQ (BLQ: Below Lower Limit of Quantification (0.5 ng/mL)) | BLQ (BLQ: Below Lower Limit of Quantification (0.5 ng/mL)) | BLQ (BLQ: Below Lower Limit of Quantification (0.5 ng/mL)) | BLQ (BLQ: Below Lower Limit of Quantification (0.5 ng/mL)) | BLQ (BLQ: Below Lower Limit of Quantification (0.5 ng/mL))
5 | CCCOC(=O)N(C)C(C)Cc1ccc2c(c1)OCO2 (centres unmarked) [Propyl carbamate prodrug of MDMA, propyl N-[2-(1,3-benzodioxol-5-yl)-1-methyl-ethyl]-N-methyl-carbamate] |  |  |  |  |  |  |  |  | BLQ (BLQ: Below Lower Limit of Quantification (0.5 ng/mL)) | BLQ (BLQ: Below Lower Limit of Quantification (0.5 ng/mL)) | BLQ (BLQ: Below Lower Limit of Quantification (0.5 ng/mL)) | BLQ (BLQ: Below Lower Limit of Quantification (0.5 ng/mL)) | BLQ (BLQ: Below Lower Limit of Quantification (0.5 ng/mL)) | BLQ (BLQ: Below Lower Limit of Quantification (0.5 ng/mL))
6 | CC(Cc1ccc2c(c1)OCO2)N(C)C(=O)C1CCOCC1 (centres unmarked) [Pyran amide prodrug of MDMA, N-[2-(2H-1,3-Benzodioxol-5-yl)-1-methyl-ethyl]-N-methyl-tetrahydro-2H-pyran-4-carboxamide] |  |  |  |  |  |  |  |  | BLQ (BLQ: Below Lower Limit of Quantification (0.5 ng/mL)) | BLQ (BLQ: Below Lower Limit of Quantification (0.5 ng/mL)) | BLQ (BLQ: Below Lower Limit of Quantification (0.5 ng/mL)) | BLQ (BLQ: Below Lower Limit of Quantification (0.5 ng/mL)) | BLQ (BLQ: Below Lower Limit of Quantification (0.5 ng/mL)) | BLQ (BLQ: Below Lower Limit of Quantification (0.5 ng/mL))
7 | CC(Cc1ccc2c(c1)OCO2)N(C)C(=O)CN(C)C(=O)[C@@H](N)Cc1ccccc1 (stereo partly drawn) [SarcPhe prodrug of MDMA, (2S)-2-amino-N-[2-[[2-(1,3-benzodioxol-5-yl)-1-methyl-ethyl]-methyl-amino]-2-oxo-ethyl]-N-methyl-3-phenyl-propanamide] |  |  |  |  |  |  |  |  | BLQ (BLQ: Below Lower Limit of Quantification (0.5 ng/mL)) | BLQ (BLQ: Below Lower Limit of Quantification (0.5 ng/mL)) | BLQ (BLQ: Below Lower Limit of Quantification (0.5 ng/mL)) | BLQ (BLQ: Below Lower Limit of Quantification (0.5 ng/mL)) | BLQ (BLQ: Below Lower Limit of Quantification (0.5 ng/mL)) | BLQ (BLQ: Below Lower Limit of Quantification (0.5 ng/mL))
8 | CC(Cc1ccc2c(c1)OCO2)N(C)C(=O)OC1CCOC1 (centres unmarked) [THF carbamate prodrug of MDMA, tetrahydrofuran-3-yl N-[2-(1,3-benzodioxol-5-yl)-1-methyl-ethyl]-N-methyl-carbamate] |  |  |  |  |  |  |  |  | BLQ (BLQ: Below Lower Limit of Quantification (0.5 ng/mL)) | BLQ (BLQ: Below Lower Limit of Quantification (0.5 ng/mL)) | BLQ (BLQ: Below Lower Limit of Quantification (0.5 ng/mL)) | BLQ (BLQ: Below Lower Limit of Quantification (0.5 ng/mL)) | BLQ (BLQ: Below Lower Limit of Quantification (0.5 ng/mL)) | BLQ (BLQ: Below Lower Limit of Quantification (0.5 ng/mL))
9 | CC(Cc1ccc2c(c1)OCO2)N(C)C(=O)C(C)(C)C (centres unmarked) [Tert-butyl amide prodrug of MDMA, N-[2-(2H-1,3-Benzodioxol-5-yl)-1-methyl-ethyl]-N-methyl-2,2-dimethylpropionamide] |  |  |  |  |  |  |  |  | BLQ (BLQ: Below Lower Limit of Quantification (0.5 ng/mL)) | BLQ (BLQ: Below Lower Limit of Quantification (0.5 ng/mL)) | BLQ (BLQ: Below Lower Limit of Quantification (0.5 ng/mL)) | BLQ (BLQ: Below Lower Limit of Quantification (0.5 ng/mL)) | BLQ (BLQ: Below Lower Limit of Quantification (0.5 ng/mL)) | BLQ (BLQ: Below Lower Limit of Quantification (0.5 ng/mL))
10 | CC(Cc1ccc2c(c1)OCO2)N(C)C(=O)OC(C)(C)C (centres unmarked) [Tert-butyl carbamate prodrug of MDMA, tert-butyl N-[2-(1,3-benzodioxol-5-yl)-1-methyl-ethyl]-N-methyl-carbamate] |  |  |  |  |  |  |  |  | BLQ (BLQ: Below Lower Limit of Quantification (0.5 ng/mL)) | BLQ (BLQ: Below Lower Limit of Quantification (0.5 ng/mL)) | BLQ (BLQ: Below Lower Limit of Quantification (0.5 ng/mL)) | BLQ (BLQ: Below Lower Limit of Quantification (0.5 ng/mL)) | BLQ (BLQ: Below Lower Limit of Quantification (0.5 ng/mL)) | BLQ (BLQ: Below Lower Limit of Quantification (0.5 ng/mL))
11 | CC(C)[C@H](N)C(=O)N(C)C(C)Cc1ccc2c(c1)OCO2 (stereo partly drawn) [Valine prodrug of MDMA, (2S)-2-amino-N-[2-(1,3-benzodioxol-5-yl)-1-methyl-ethyl]-N,3-dimethyl-butanamide] |  |  |  |  |  |  |  |  | BLQ (BLQ: Below Lower Limit of Quantification (0.5 ng/mL)) | BLQ (BLQ: Below Lower Limit of Quantification (0.5 ng/mL)) | BLQ (BLQ: Below Lower Limit of Quantification (0.5 ng/mL)) | BLQ (BLQ: Below Lower Limit of Quantification (0.5 ng/mL)) | BLQ (BLQ: Below Lower Limit of Quantification (0.5 ng/mL)) | BLQ (BLQ: Below Lower Limit of Quantification (0.5 ng/mL))
12 | CC(Cc1ccc2c(c1)OCO2)N(C)C(=O)OCC(C)(C)COC(=O)C(C)(C)C (centres unmarked) [[3-[[2-(1,3-Benzodioxol-5-yl)-1-methyl-ethyl]-methyl-carbamoyl]oxy-2,2-dimethyl-propyl] 2,2-dimethylpropanoate] |  |  |  |  |  |  |  |  | BLQ (BLQ: Below Lower Limit of Quantification (0.5 ng/mL)) | BLQ (BLQ: Below Lower Limit of Quantification (0.5 ng/mL)) | BLQ (BLQ: Below Lower Limit of Quantification (0.5 ng/mL)) | BLQ (BLQ: Below Lower Limit of Quantification (0.5 ng/mL)) | BLQ (BLQ: Below Lower Limit of Quantification (0.5 ng/mL)) | BLQ (BLQ: Below Lower Limit of Quantification (0.5 ng/mL))

Source: US20240317724A1, “3,4-METHYLENEDIOXYMETHAMPHETAMINE AND RELATED PS[…] USES THEREOF” (Terran Biosciences Inc., priority 2021, published 2024)
